Measurements taken from patent US6608082B1, “Treatment of erectile dysfunction using isoquinoline compound melanocortin receptor ligands” (Lion Bioscience AG, priority 1998, dated 2003).
Like-named read-outs stand apart in the source and are kept apart here. One block for each compound: values may come before it.

Columns and labels:
[1] = target: T1, MCR-4 (Homo sapiens, UniProt P32245); experiment: Melanocortin receptor binding assay, competition with 125I-HP 467, HEK 293 cells expressing hMCR-4; conditions: for IC50: read-out: MC-4 IC50
T1 construct: expressed in transfected cells; host or cells: HEK 293
T1 sequence (P32245 whole entry): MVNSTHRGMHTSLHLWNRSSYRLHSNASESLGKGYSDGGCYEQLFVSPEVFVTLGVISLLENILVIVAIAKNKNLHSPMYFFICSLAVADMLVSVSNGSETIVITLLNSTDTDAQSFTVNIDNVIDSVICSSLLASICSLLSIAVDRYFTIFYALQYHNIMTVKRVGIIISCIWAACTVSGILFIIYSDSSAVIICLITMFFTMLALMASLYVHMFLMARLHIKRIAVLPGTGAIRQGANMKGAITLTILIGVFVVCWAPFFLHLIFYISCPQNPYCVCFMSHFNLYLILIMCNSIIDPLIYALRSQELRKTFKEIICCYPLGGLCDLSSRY
How it was run: (§1)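 Intact-cell competition binding, 2.5 hr at 37 °C, in PBS/10% calf serum/1 mM CaCl2; hMCR-4 cells at 4×10^3 per tube, hMCR-1 cells at 2×10^4 per tube. Filtration on BSA/CaCl2-soaked GF/B, cold 50 mM Tris pH 7.4 washes, scintillation count.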

[2] = target: T2, MCR-1 (Homo sapiens, UniProt Q01726); experiment: Melanocortin receptor binding assay, competition with 125I-HP 467, HEK 293 cells expressing hMCR-1; conditions: for IC50: read-out: MC-1 IC50; for % Disp. MC-1 10 μM: displacement of 125I-HP 467 at 10 μM isoquinoline compound
T2 construct: expressed in transfected cells; host or cells: HEK 293
T2 sequence (Q01726 whole entry): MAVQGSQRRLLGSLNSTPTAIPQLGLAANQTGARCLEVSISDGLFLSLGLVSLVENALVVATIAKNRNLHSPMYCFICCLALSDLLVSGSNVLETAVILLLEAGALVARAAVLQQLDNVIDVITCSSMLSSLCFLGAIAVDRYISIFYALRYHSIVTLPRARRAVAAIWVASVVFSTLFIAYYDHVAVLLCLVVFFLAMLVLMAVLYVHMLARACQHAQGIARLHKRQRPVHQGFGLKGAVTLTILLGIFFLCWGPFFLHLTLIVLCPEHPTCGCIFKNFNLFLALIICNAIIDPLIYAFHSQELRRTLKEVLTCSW
How it was run: as §1

[3] = inhibition of binding of 125I-HP 467, HEK 293 cells expressing MCR-4, TRG 2414 library
[4] = inhibition of binding of 125I-HP 467, HEK 293 cells expressing MCR-1, TRG 2414 library
[5] = TRG 2408 and TRG 2409 libraries, inhibition of 125I-HP 467 binding
[6] = TRG 2406 and TRG 2407 libraries, inhibition of binding of 125I-HP 467
[7] = inhibition of binding of 125I-HP 467, HEK 293 cells expressing MCR-4
[8] = inhibition of binding of 125I-HP 467, HEK 293 cells expressing MCR-1
[9] = TRG 2414 library, inhibition of binding of 125I-HP 467, HEK 293 cells expressing MCR-4
[10] = TRG 2414 library, inhibition of binding of 125I-HP 467, HEK 293 cells expressing MCR-1

Compound: CCOc1cccc(NCC2c3ccccc3CN(CCCCC(CN)NC)C2c2ccc(Cl)cc2Cl)c1 (stereo not shown) [TRG 2407-6]
IC50 [1, 6]: 6.97 µM | IC50 [2, 6]: 3.42 µM

Compound: CC(C)Cc1ccc(C(C)CNC(CN)CCCCN2Cc3ccccc3C(CNC3CCCCCC3)C2c2ccc(Cl)cc2Cl)cc1 (stereo not shown) [TRG 2414-36]
IC50 [1, 3]: 9.92 µM | IC50 [2, 4]: 8.65 µM

Compound: COc1ccc(CNC(CN)CCCCN2Cc3ccccc3C(CNCCc3cccc(OC)c3)C2c2cc(C(F)(F)F)cc(C(F)(F)F)c2)cc1 (stereo not shown) [TRG 2421-39]
IC50 [1, 7]: 1.04 µM | IC50 [2, 8]: 3.3 µM

Compound: CCOc1ccc(CCNCC2c3ccccc3CN(CCCCC(CN)NCc3ccc(C)cc3)C2c2cc(C(F)(F)F)cc(C(F)(F)F)c2)cc1 (stereo not shown) [TRG 2421-22]
IC50 [1, 7]: 8.22 µM | IC50 [2, 8]: 3.02 µM

Compound: CCCCNc1ccc(C2C(CNCCc3ccccc3)c3ccccc3CN2CCCC(CN)NCc2ccccc2)cc1 (stereo not shown) [TRG 2411-196]
IC50 [1, 7]: 1.05 µM | IC50 [2, 8]: 0.12 µM

Compound: COc1ccc(CNCC2c3ccccc3CN(CCCCC(CN)NCCc3ccccc3)C2c2cc(C(F)(F)F)cc(C(F)(F)F)c2)cc1 (stereo not shown) [TRG 2414-62]
IC50 [1, 3]: 6.87 µM | IC50 [2, 4]: 15.5 µM

Compound: CCNc1ccc(C2C(CNCCc3ccccc3)c3ccccc3CN2CCCC(CN)NCC2CC2CNCCc2ccccc2)cc1 (stereo not shown) [TRG 2420-8]
IC50 [1, 7]: 2.36 µM | IC50 [2, 8]: 0.208 µM

Compound: COc1ccccc1CCNCC1c2ccccc2CN(CCCCC(N)CN)C1c1ccccc1Br (stereo not shown) [Cmpd 209]
IC50 [1, 9]: 1.37 µM | IC50 [2, 10]: 1.71 µM

Compound: NCC(CCCCN1Cc2ccccc2C(CNCCc2cccc(Cl)c2)C1c1ccccc1Br)NCc1ccccc1 (stereo not shown) [Cmpd 215]
IC50 [1, 9]: 6.43 µM | IC50 [2, 10]: 8.51 µM

Compound: NCC(N)CCCCN1Cc2ccccc2C(CNC2CCCCC2)C1c1ccc(-c2ccccc2)cc1 (stereo not shown) [TRG 2408-21]
IC50 [1, 5]: 17.4 µM | IC50 [2, 5]: 1.73 µM

The next lines start with the values.

IC50 [1, 3]: 6.93 µM | IC50 [2, 4]: 5.86 µM
Compound: COc1cccc(CNCC2c3ccccc3CN(CCCCC(CN)NCc3ccccc3)C2c2cccc(Oc3ccccc3)c2)c1 (stereo not shown) [TRG 2414-99]

IC50 [1, 5]: 35.2 µM | IC50 [2, 5]: 0.69 µM
Compound: CCNc1ccc(C2C(CNC3CCCCC3)c3ccccc3CN2CCCC(N)CN)cc1 (stereo not shown) [TRG 2408-61]

IC50 [1, 7]: 1.43 µM | IC50 [2, 8]: 0.07 µM
Compound: CCNc1ccc(C2C(CN)c3ccccc3CN2CCCC(CN)NCCc2ccccc2)cc1 (stereo not shown) [TRG 2411-179]

IC50 [1, 7]: 1.24 µM | IC50 [2, 8]: 0.15 µM
Compound: CCCCNc1ccc(C2C(CNCCc3ccccc3)c3ccccc3CN2CCCC(CN)NCCc2ccccc2)cc1 (stereo not shown) [TRG 2411-193]

MC-4 IC50 [1, 3]: no fit | IC50 [2, 4]: 40.2 µM
Compound: NCC(CCCCN1Cc2ccccc2C(CNCCc2cccc(Cl)c2)C1c1ccc(Oc2ccccc2)cc1)NCCc1ccccc1 (stereo not shown) [TRG 2414-134]

IC50 ([1]; TRG 2405 section, inhibition of binding of 125I-HP 467, HEK 293 cells expressing MCR-4): 18.9 µM | IC50 ([2]; TRG 2405 section, inhibition of binding of 125I-HP 467, HEK 293 cells expressing MCR-1): 14.3 µM | % Disp. MC-1 10 μM ([2]; first of duplicate): 42.3% | % Disp. MC-1 10 μM ([2]; second of duplicate): 45.8%
Compound: Cc1cccc(C2C(CNC3CCCCC3)c3ccccc3CN2CCN)c1 (stereo not shown) [TRG 2405-47]

IC50 ([1]; competition with 125I-HP 467, HEK 293 cells expressing MCR-4): 1.17 µM | IC50 ([2]; competition with 125I-HP 467, HEK 293 cells expressing MCR-1): 0.09 µM
Compound: CCCCNc1ccc(C2C(CN)c3ccccc3CN2CCCCC(CN)NCCCC)cc1 (stereo not shown) [TRG 2411-102]

IC50 [1, 7]: 3.89 µM | IC50 [2, 8]: 0.677 µM
Compound: CCCCOc1ccc(C2C(CN)c3ccccc3CN2CCCC(CN)NCCC2CCCCC2)cc1 (stereo not shown) [TRG 2415-12]

IC50 [1, 9]: 34.1 µM | IC50 [2, 10]: 21.8 µM
Compound: NCC(CCCCN1Cc2ccccc2C(CNCc2ccccc2C(F)(F)F)C1c1ccccc1Br)NCCc1ccccc1 (stereo not shown) [Cmpd 202]

IC50 [1, 3]: 0.7 µM | IC50 [2, 4]: 1.1 µM
Compound: COc1ccccc1CCNCC1c2ccccc2CN(CCCCC(N)CN)C1c1ccc(Cl)cc1Cl (mixture of isomers) [TRG 2414-9]

IC50 [1, 5]: 6.3 µM | IC50 [2, 5]: 0.76 µM
Compound: NCCNC(CN)CCCCN1Cc2ccccc2C(CNC2CCCCC2)C1c1ccc(Cl)cc1Cl (stereo not shown) [TRG 2408-15]

MC-4 IC50 [1, 3]: no fit | IC50 [2, 4]: 53.7 µM
Compound: CC(C)Cc1ccc(C(C)CNC(CN)CCCCN2Cc3ccccc3C(CNC3CCCCCC3)C2c2cccc(Oc3ccccc3)c2)cc1 (stereo not shown) [TRG 2414-116]
